From patent publication US9598448B2, “Osmium (II) arene imino anti-cancer complexes” (University of Warwick, priority 2010, dated 2017)
“Also recorded” adds a separate entry of the source.

What was measured:
[1] = system: HCT-116 colon adenocarcinoma s.c. xenograft model; experiment: In vivo efficacy in HCT-116 s.c. xenograft model
HCT-116 colon = experiment: MTT growth inhibition assay, HCT-116; assay type: cell-based, human; settings: 96 h
Description: (§1) Tumor cell growth inhibition was assessed using the MTT assay.^13 2×10^3 cells were inoculated into a 96-well plate and incubated overnight at 37° C. in a humidified atmosphere containing 5% CO2. Complexes were solubilised in DMSO as above, and then diluted in complete cell culture medium to give a broad range of concentrations. Cisplatin was included in the screen as a comparator. Medium was removed from each well and replaced with complex or control solutions, and the plates then incubated for a further 96 hours. After 96 h culture medium was removed and 200 μL of 0.5 mg mL^−1 MTT solution (Sigma) in complete medium added to each well. Following further 4 h incubation, the solution was removed from each well and 150 μL of DMSO (Sigma) added to solubilise the formazan crystals resulting from MTT conversion. Absorbance values for the resulting solutions were read at 550 nm on a microplate reader and cell survival calculated as the absorbance of treated cells divided by the control. Results were expressed in terms of IC50 values (i.e. concentration of compound required to kill 50% of cells) and all experiments were performed in triplicate.
(§2) The following human cancer cell lines were cultured in RPMI 1640 cell culture medium supplemented with 1 mM sodium pyruvate, 2 mM L-glutamine and 10% fetal bovine serum (all from Sigma): A549 non-small cell lung, HCT-116 colon, MCF-7 breast, PC-3 prostate (all from LGC Promochem, Teddington, UK), A2780/cis ovarian (cisplatin-resistant) and RT-112 bladder (both from ECACC, Salisbury, UK).

[2] = system: microtubules in A2780 human ovarian cancer cell line; experiment: Immunofluorescence of microtubules by confocal microscopy; assay type: cell-based; settings: 24 h treatment, 1 μM
Description: A2780 Cells were seeded on Lab-Tek™ Chamber Slides (Thermo Scientific Nunc) 10,000 cells/chamber, after 24 h incubation, osmium compound [Os(η^6-bip)(2-F-Azpy)I]PF6 at different concentrations were added and incubate for another 24 h. Cells were fixed with 4% formaldehyde in PBS (20 min, 310 K), then rinsed with PBS (3×2 mL×2 min), and permeabilized with 0.1% Triton X-100 solution (PBS solution) for 15 min at ambient temperature. The cells were blocked with blocking buffer (2 mg/mL BSA, overnight at […]), and then, the cell monolayers were incubated (1 h, 310 K) with monoclonal anti-α-tubulin-Alexa 488 (4 μg/mL) (Invitrogen Molecular Probles, Catalog No. 32-2588). After the incubation, the cells were washed with PBS and the immunofluorescence was detected using a Leica SP5 fluorescence confocal microscope, with 100× objective.

Leukemia MOLT-4 = experiment: NCI 60-cell line screen, MOLT-4; assay type: cell-based, human; settings: Leukemia MOLT-4, 48 h
Description: (§3) The cells were treated for 48 h at five concentrations ranging from 0.01 to 100 μM. Three endpoints were calculated: GI 50 (the concentration inhibits cell growth by 50%): […]

[3] = system: human ovarian A2780 cancer cells; experiment: SRB growth inhibition assay, A2780; assay type: cell-based; settings: SRB; 24 h exposure, 72 h recovery; read-out: IC50 values for azopyridine complexes against A2780 ovarian cancer cells
Description: The concentrations of the osmium complexes that inhibit 50% of the proliferation of human ovarian A2780 cancer cells were determined by sulforhodamine B test. A2780 cells were seeded in 96-well plate (Falcon) at 5000 cells/well, after the incubation for 48 h, The complexes were solubilised in DMSO (Sigma) to provide 10 mM stocks. The stocks were serially diluted by cell culture media to give concentrations four-fold than the final concentrations for the assay. The dilutions of complexes in cell culture media were added to the 96-well plate with cells in triplicates to achieve the final concentrations. The final DMSO concentration in each well was no more than 1% (v/v). The complexes were removed after 24 h. The cells were washed with Phosphate Buffered Saline once and cell culture media was added 150 μL/well. The cells were recovered for 72 h. The surviving cells were fixed by adding 150 μL/well of 50% (w/v) trichloroacetic acid and incubated for 1 h at 277 K (277 K). The plates were washed with tap water three times and dried under a flow of warm air, 0.4% sulforhodamine B (Sigma) solution 100 μL/well followed by washing with 1% acetic acid five times and dried under a flow of warm air. The dye was dissolved in 10 mM Tris buffer […] The absorbance of each well was obtained by the Multiskan Ascent plate reader (Labsystems) at 540 nm. The absorbance value of SRB in each well is directly proportional to the cell number. Then the absorbance can be plotted against concentration and the IC50 determined by using Origin software.
The cytotoxicity studies were carried out as described previously above.

RT-112 bladder = experiment: MTT growth inhibition assay, RT-112; assay type: cell-based, human; settings: MTT, 96 h
Description: as §1, §2

[4] = Stability and hydrolysis (1H NMR, MS, UV-vis); assay type: physicochemical; settings: 310 K, 24 h, 95% deuterated phosphate buffer (10 mM)/5% MeOD-d4
Leukemia HL-60 (TB) = experiment: NCI 60-cell line screen, HL-60 (TB); assay type: cell-based, human; settings: 48 h
Description: as §3

[5] = system: Balb/c immunodeficient nude mice bearing HCT-116 tumours; experiment: Evaluation of in vivo toxicity in nude mouse HCT-116 xenograft model; settings: i.v. day 0, doses from 2 up to 40 mg kg^−1, monitored 15 days
Description: Female Balb/c immunodeficient nude mice (Harlan, Loughborough, UK) aged 6-12 weeks were used. Mice received Harlan 2018 diet (Harlan) and water ad libitum. Mice were kept in cages in an air-conditioned room with regular alternating cycles of light and darkness. All animal procedures were carried out under a project license issued by the UK Home Office and UKCCCR guidelines (Workman P, Twentyman P, Balkwill F et al: United Kingdom Co-ordinating Committee on Cancer Research (UKCCCR) Guidelines for the Welfare of Animals in Experimental Neoplasia (Second Edition). Br J Cancer 77: 1-10, 1998) were followed throughout.
HCT-116 was used in the study. Tumours were excised from a donor animal, placed in sterile physiological saline containing antibiotics and cut into small fragments of approximately 2 mm^3. Under brief general inhalation anaesthesia, fragments were implanted in the […] abdominal flank of each mouse using a trocar. Once the tumours could accurately be measured using callipers (mean tumour volume of approximately 50 mm^3), treatment commenced. Complexes 3 and 6 were solubilised in 10% DMSO; 5% Tween-80; 85% saline and were administered intravenously to groups of 2 mice on day 0. Animals were weighed frequently and monitored for any deleterious effects over a period of 15 days.

[6] = 40.0 mg kg^−1, single intravenous injection

In the case of “[(η^6-p-cym)Os(Azpy-NMe2)I]PF6 [Complex 6]”, the “Maximum % weight loss” value [1, 6] is reported as 8%, the “Median tumour doubling time” value [1, 6] is reported as 6.2 days and the “day of maximum % weight loss” value [1, 6] is reported as 1 days. For the same substance, the toxicity ([1]; single i.v. 40 mg/kg) was “negligible toxicity”, the tumour growth delay ([1]; single i.v. 40 mg/kg, compared to the untreated control (p<0.01)) was “statistically significant tumour growth delay” and the IC50 (HCT-116 colon) was under 300 nM. For the same substance, the “inhibition of microtubule formation in cells” value [2] was “inhibition forming microtubules were observed”, the GI50 (Leukemia MOLT-4) was under 50 nM and the IC50 [3] was 200 nM. For the same substance, the IC50 (RT-112 bladder) was under 300 nM, the “stability and hydrolysis in aqueous solution” value [4] was “remained stable and did not hydrolyze” and the GI50 (Leukemia HL-60 (TB)) was under 50 nM. The “toxicity / deleterious effects” value [5] was “no evident toxicity; also recorded: negligible deleterious effects”.
